# Measurements: PMC9412022, “Integrate thermostabilized fusion protein apocytochrome b 562 RIL and N-glycosylation mutations: A novel approach to heterologous expression of human UDP-glucuronosyltransferase (UGT) 2B7” (Frontiers in Pharmacology, 2022)
# Substitutions are numbered along the chain they refer to. pKd: −log10 of the molar value.
# Experiments:
# UGT2B7-BRIL = molecular target: T1, UGT2B7-BRIL (Homo sapiens, UniProt P16662); experiment: CPM thermostability assay (melting temperature) of UGT2B7-BRIL in the presence of compounds; type: binding; settings: apo protein Tm […]; for melting temperature (Tm) of UGT2B7-BRIL in the presence of the compound alone: CPM fluorescence, 20-95°C ramp
# T1 construct: 10xHis (C); made in house; host or cells: Spodoptera frugiperda Sf9 insect cells (Bac-to-Bac baculovirus)
# T1 sequence (P16662 24-529): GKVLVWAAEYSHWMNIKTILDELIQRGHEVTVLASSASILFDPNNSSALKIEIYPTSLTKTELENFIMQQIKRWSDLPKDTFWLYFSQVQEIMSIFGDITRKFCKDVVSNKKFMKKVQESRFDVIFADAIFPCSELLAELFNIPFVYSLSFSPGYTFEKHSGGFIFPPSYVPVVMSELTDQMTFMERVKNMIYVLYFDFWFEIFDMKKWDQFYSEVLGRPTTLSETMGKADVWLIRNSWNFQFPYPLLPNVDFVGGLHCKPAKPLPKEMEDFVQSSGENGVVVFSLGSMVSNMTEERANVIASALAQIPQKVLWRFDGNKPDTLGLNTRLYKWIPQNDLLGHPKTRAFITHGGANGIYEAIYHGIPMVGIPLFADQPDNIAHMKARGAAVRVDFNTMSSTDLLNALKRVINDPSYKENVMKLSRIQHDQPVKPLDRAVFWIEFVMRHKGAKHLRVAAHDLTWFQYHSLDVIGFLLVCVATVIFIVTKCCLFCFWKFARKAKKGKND
# Procedure: The gain setting was determined at the beginning of the run and the melting temperature (Tm) was calculated from the point of inflection.
# UGT2B7 (N315A)-BRIL = molecular target: T2, UGT2B7 (N315A)-BRIL (Homo sapiens, UniProt P16662, N315A); experiment: Surface plasmon resonance binding to purified UGT2B7 (N315A)-BRIL; settings: SPR, 25°C, Biacore T200, CM7 chip, steady-state affinity model
# T2 construct: we selected the full-length UGT2B7 (N315A)-BRIL construct with BRIL covalently attached to the C-terminus of UGT2B7; made in house; host or cells: Spodoptera frugiperda Sf9 insect cells (Bac-to-Bac baculovirus)
# T2 sequence (P16662 24-529 N315A): T1 sequence (P16662 24-529) with N292A
# Procedure: All experiments were performed with a running buffer containing phosphate buffer (pH 7.4), 0.002% LMNG, and 0.0002% CHS to maintain the concentration of detergent above the critical micelle concentration, which is necessary for the formation of micelles and the correct folding of the purified UGT2B7 proteins. About 8,500 response units of 6 × His-tag monoclonal antibody (Proteintech) were directly immobilized on the chip, which were desalted in 10 mM sodium acetate (pH 4.5). Then the purified UGT2B7 proteins flowed over the chip and coupled with the His-tag antibody at about 18,000 RU. And the blank channel was used as the negative control. Substrates or inhibitors solutions flowed over the chip at a flow rate of 30 μl/min and were contacted 120 s. Then, flowed running buffer at the same rate to dissociation 120 s. The obtained affinities data were analyzed with the BIA evaluation software using the steady-state affinity model.
# purified UGT2B7 proteins = experiment: Glucuronidation of zidovudine by purified UGT2B7 proteins in detergent LMNG/CHS; type: in vitro ADME, human; settings: purified protein in detergent LMNG/CHS, no phospholipid bilayer
melting temperature (Tm) of UGT2B7-BRIL in the presence of the compound alone (UGT2B7-BRIL),pKd (UGT2B7 (N315A)-BRIL),melting temperature (Tm) of UGT2B7-BRIL in the presence of both cofactor (UDP) and substrate (UGT2B7-BRIL; substrate + UDP),glucuronidation by purified UGT2B7 proteins (purified UGT2B7 proteins),SMILES
50.9 °C,3.23,–,–,"O=c1ccn([C@@H]2O[C@H](COP(=O)([O-])OP(=O)([O-])O)[C@@H](O)[C@H]2O)c(=O)[nH]1.[Na+].[Na+] [UDP, uridine 5′-diphosphate disodium salt]"
–,4.76,–,–,COc1cc2c(c(O)c1OC)-c1c(cc(OC)c(OC)c1OC)C[C@@H](C)[C@@H](C)C2 [Schisanhenol]
–,4.30,–,–,COc1ccc([C@@H]2CC(=O)c3c(O)cc(O)cc3O2)cc1O [Hesperetin]
53.2 °C,–,61.0 °C,not observed,Cc1cn([C@H]2C[C@H](N=[N+]=[N-])[C@@H](CO)O2)c(=O)[nH]c1=O [Zidovudine]
